Assay results: ChEMBL document CHEMBL1158208, “Raocyclamides A and B, Novel Cyclic Hexapeptides Isolated from the Cyanobacterium Oscillatoria raoi” (J Nat Prod, 1996); call rule not given here

Columns and labels:
[1] = Inhibition of Paracentrotus lividus embryo division at 250 ug/mL
[2] = Inhibition of Paracentrotus lividus embryo division

Row | SMILES | Activity [1] | ED100 [2]
1 | CC[C@H](C)[C@H]1NC(=O)c2coc(n2)[C@H](C)NC(=O)[C@@H](CO)NC(=O)[C@@H](Cc2ccccc2)NC(=O)c2csc1n2 [RAOCYCLAMIDE B] | Not Active | 
2 | CC[C@H](C)[C@H]1NC(=O)c2coc(n2)[C@H](C)NC(=O)[C@H]2COC(=N2)[C@@H](Cc2ccccc2)NC(=O)c2csc1n2 [RAOCYCLAMIDE A] |  | 30 µg/mL
